# Measurements: patent US7632972B2, “Compounds and methods for treatment of cancer and modulation of programmed cell death for melanoma and other cancer cells” (The Board of Trustees of the University of Illionis, priority 2003, dated 2009)
# Experiments:
# Format in all cases: cell-based, human
# UO-31 = assay: NCI 60 cell line screen (SRB), Renal Cancer
# From the text: (§1) The operation of this screen utilizes 60 different human tumor cell lines, representing leukemia, melanoma and cancers of the lung, colon, brain, ovary, breast, prostate, and kidney. The aim is to prioritize for further evaluation, synthetic compounds or natural product samples showing selective growth inhibition or cell killing of particular tumor cell lines. This screen is unique in that the complexity of a 60 cell line dose response produced by a given compound results in a biological response pattern which can be utilized in pattern recognition algorithms. Using these algorithms, it is possible to assign a putative mechanism of action to a test compound, or to determine that the response pattern is unique and not similar to that of any of the standard prototype compounds included in the NCl database (see DTP Overview tab). In addition, following characterization of various cellular molecular targets in the 60 cell lines, it may be possible to select compounds most likely to interact with a specific molecular target.
# (§2) The human tumor cell lines of the cancer screening panel are grown in RPMI 1640 medium containing 5% fetal bovine serum and 2 mM L-glutamine. For a typical screening experiment, cells are inoculated into 96 well microtiter plates in 100 μL at plating densities ranging from 5,000 to 40,000 cells/well depending on the doubling time of individual cell lines. After cell inoculation, the microtiter plates are incubated at 37° C., 5% CO2, 95% air and 100% relative humidity for 24 h prior to addition of experimental drugs.
# (§3) After 24 h, two plates of each cell line are fixed in situ with TCA, to represent a measurement of the cell population for each cell line at the time of drug addition (Tz). Experimental drugs are solubilized in dimethyl sulfoxide at 400-fold the desired final maximum test concentration and stored frozen prior to use. At the time of drug addition, an aliquot of frozen concentrate is thawed and diluted to twice the desired final maximum test concentration with complete medium containing 50 μg/ml gentamicin. Additional four, 10-fold or ½ log serial dilutions are made to provide a total of five drug concentrations plus control. Aliquots of 100 μl of these different drug dilutions are added to the appropriate microtiter wells already containing 100 μl of medium, resulting in the required final drug concentrations.
# (§4) Following drug addition, the plates are incubated for an additional 48 h at 37° C., 5% CO2, 95% air, and 100% relative humidity. For adherent cells, the assay is terminated by the addition of cold TCA. Cells are fixed in situ by the gentle addition of 50 μl of cold 50% (w/v) TCA (final concentration, 10% TCA) and incubated for 60 minutes at 4° C. The supernatant is discarded, and the plates are washed five times with tap water and air dried. Sulforhodamine B (SRB) solution (100 μl) at 0.4% (w/v) in 1% acetic acid is added to each well, and plates are incubated for 10 minutes at room temperature. After staining, unbound dye is removed by washing five times with 1% acetic acid and the plates are air dried. Bound stain is subsequently solubilized with 10 mM trizma base, and the absorbance is read on an automated plate reader at a wavelength of 515 nm. For suspension cells, the methodology is the same except that the assay is terminated by fixing settled cells at the bottom of the wells by gently adding 50 μl of 80% TCA (final concentration, 16% TCA). Using the seven absorbance measurements [time zero, (Tz), control growth, (C), and test growth in the presence of drug at the five concentration levels (Ti)], the percentage growth is calculated at each of the drug concentrations levels. Percentage growth inhibition is calculated as: [(Ti−Tz)/(C−Tz)]×100 for concentrations for which Ti>/=Tz [(Ti−Tz)/Tz]×100 for concentrations for which Ti<Tz.
# (§5) Three dose response parameters are calculated for each experimental agent. […]
# SN12C = assay: NCI 60 cell line screen (SRB), Renal Cancer
# From the text: as §1, §2, §3, §4, §5
# 786-0 = assay: NCI 60 cell line screen (SRB), Renal Cancer
# From the text: as §1, §2, §3, §4, §5
# TK-10 = assay: NCI 60 cell line screen (SRB), Renal Cancer
# From the text: as §1, §2, §3, §4, §5
# CAKI-1 = assay: NCI 60 cell line screen (SRB), Renal Cancer
# From the text: as §1, §2, §3, §4, §5
# ACHN = assay: NCI 60 cell line screen (SRB), Renal Cancer
# From the text: as §1, §2, §3, §4, §5
# SNB-19 = assay: NCI 60 cell line screen (SRB), CNS Cancer
# From the text: as §1, §2, §3, §4, §5
# SF-268 = assay: NCI 60 cell line screen (SRB), CNS Cancer
# From the text: as §1, §2, §3, §4, §5
# [1] = read-out: LC50 (the source's name)
smiles,measurement,setting,value
COc1cccc(CCNC(=O)CC(c2ccccc2)(c2ccccc2)c2ccccc2)c1 [Compound Z3],GI50,UO-31; UO-31,4.75 µM
same,TGI,UO-31; UO-31,>1.00E−04
same,Percent Growth,"UO-31; UO-31, Log10 Concentration −4.0",20%
same,Percent Growth,"UO-31; UO-31, Log10 Concentration −5.0",33%
same,Percent Growth,"UO-31; UO-31, Log10 Concentration −6.0",85%
same,Percent Growth,"UO-31; UO-31, Log10 Concentration −7.0",98%
same,Percent Growth,"UO-31; UO-31, Log10 Concentration −8.0",86%
same,CC50,"UO-31; UO-31, read-out: LC50 (the source's name)",> 100 µM
same,Percent Growth,SN12C; Log10 Concentration −4.0,217%
same,Percent Growth,SN12C; Log10 Concentration −5.0,−14%
same,Percent Growth,SN12C; Log10 Concentration −6.0,51%
same,Percent Growth,SN12C; Log10 Concentration −7.0,84%
same,Percent Growth,SN12C; Log10 Concentration −8.0,87%
same,CC50,SN12C; [1],> 100 µM
same,GI50,786-0; 786-0,10.6 µM
same,TGI,786-0; 786-0,>1.00E−04
same,Percent Growth,"786-0; 786-0, Log10 Concentration −4.0",7%
same,Percent Growth,"786-0; 786-0, Log10 Concentration −5.0",51%
same,Percent Growth,"786-0; 786-0, Log10 Concentration −6.0",86%
same,Percent Growth,"786-0; 786-0, Log10 Concentration −7.0",98%
same,Percent Growth,"786-0; 786-0, Log10 Concentration −8.0",86%
same,CC50,"786-0; 786-0, read-out: LC50 (the source's name)",> 100 µM
same,GI50,TK-10; TK-10,21.9 µM
same,TGI,TK-10; TK-10,8.22E−05
same,Percent Growth,"TK-10; TK-10, Log10 Concentration −4.0",−7%
same,Percent Growth,"TK-10; TK-10, Log10 Concentration −5.0",80%
same,Percent Growth,"TK-10; TK-10, Log10 Concentration −6.0",133%
same,Percent Growth,"TK-10; TK-10, Log10 Concentration −7.0",128%
same,Percent Growth,"TK-10; TK-10, Log10 Concentration −8.0",117%
same,CC50,"TK-10; TK-10, read-out: LC50 (the source's name)",> 100 µM
same,GI50,CAKI-1; CAKI-1,3.16 µM
same,TGI,CAKI-1; CAKI-1,5.09E−05
same,Percent Growth,"CAKI-1; CAKI-1, Log10 Concentration −4.0",−9%
same,Percent Growth,"CAKI-1; CAKI-1, Log10 Concentration −5.0",21%
same,Percent Growth,"CAKI-1; CAKI-1, Log10 Concentration −6.0",79%
same,Percent Growth,"CAKI-1; CAKI-1, Log10 Concentration −7.0",103%
same,Percent Growth,"CAKI-1; CAKI-1, Log10 Concentration −8.0",97%
same,CC50,"CAKI-1; CAKI-1, read-out: LC50 (the source's name)",> 100 µM
same,GI50,ACHN,7.84 µM
same,TGI,ACHN,9.48E−05
same,Percent Growth,ACHN; Log10 Concentration −4.0,−1%
same,Percent Growth,ACHN; Log10 Concentration −5.0,45%
same,Percent Growth,ACHN; Log10 Concentration −6.0,94%
same,Percent Growth,ACHN; Log10 Concentration −7.0,112%
same,Percent Growth,ACHN; Log10 Concentration −8.0,102%
same,CC50,ACHN; [1],> 100 µM
same,GI50,SNB-19; SNB-19,90.1 µM
same,TGI,SNB-19; SNB-19,>1.00E−04
same,Percent Growth,"SNB-19; SNB-19, Log10 Concentration −4.0",48%
same,Percent Growth,"SNB-19; SNB-19, Log10 Concentration −5.0",92%
same,Percent Growth,"SNB-19; SNB-19, Log10 Concentration −6.0",92%
same,Percent Growth,"SNB-19; SNB-19, Log10 Concentration −7.0",107%
same,Percent Growth,"SNB-19; SNB-19, Log10 Concentration −8.0",97%
same,CC50,"SNB-19; SNB-19, read-out: LC50 (the source's name)",> 100 µM
same,GI50,SF-268; SF-268,15 µM
same,TGI,SF-268; SF-268,>1.00E−04
same,Percent Growth,"SF-268; SF-268, Log10 Concentration −4.0",38%
same,Percent Growth,"SF-268; SF-268, Log10 Concentration −5.0",53%
same,Percent Growth,"SF-268; SF-268, Log10 Concentration −6.0",87%
same,Percent Growth,"SF-268; SF-268, Log10 Concentration −7.0",97%
same,Percent Growth,"SF-268; SF-268, Log10 Concentration −8.0",90%
same,CC50,"SF-268; SF-268, read-out: LC50 (the source's name)",> 100 µM
